Measured values reported in patent US20260138959A1, “QUINAZOLINE DERIVATIVE COMPOUND AND USE THEREOF” (VORONOI INC., priority 2021, published 2026).

Legend:
Ba/F3-c-KIT(D816V) = assay: Proliferation inhibitory activity on Ba/F3 cell (CellTiter-Glo, 72 hours), c-KIT(D816V); format: cell-based; conditions: Mus musculus, BaF3, read-out: Ba/F3 (nM) c-KIT (D816V) (GI50 class)
Method: (§1) Ba/F3-TEL-PDGFRα(WT), Ba/F3-TEL-PDGFβ(WT), Ba/F3-c-KIT(D816V) (Kyinno, #KC-0138), c-KIT V560G/D816V, c-KIT D814Y were seeded at 3×10^3/100 μl/well in a clear bottom white 96-well plate. A culture solution containing compounds of 12 concentrations (0.00001-2 mM) serially diluted in 3 folds and the DMSO control group was added at 0.5 μl/well each to a final concentration of 0.00005-10 μM, and then incubated in a CO2 incubator at 37° C. for 72 hours. After 72 hours, the plate treated with the compound was taken out, CellTiter-Glo® Assay (Promega) solution was treated with 100 μl/well, followed by mixing well. After mixing well for about 10 minutes at room temperature, […] was measured using a microplate reader. The data were presented as percentages in proportion to treated cells based on the vehicle, GI50 (nM) values were calculated using GraphPad Prism 8.3.0 (GraphPad software Inc., San Diego).
(§2) The inhibitory activities of Ba/F3 expressing PDGFR-α, PDGFR-β, c-KIT(D816V), c-KIT V560G/D816V, and c-KIT D814Y measured as described above were measured and shown in Table 7 below (A: GI50≤200 nM; B: 200 nM<GI50≤500 nM; C: GI50>500 nM).

c-KIT V560G/D816V = assay: Proliferation inhibitory activity on Ba/F3 cell (CellTiter-Glo, 72 hours), c-KIT V560G/D816V; format: cell-based; conditions: Mus musculus, BaF3, c-KIT V560G/D816V cells, read-out: Cell (nM) c-KIT V560G/D816V (GI50 class)
Method: as §1, §2

Row | Structure (SMILES) | GI50 (Ba/F3-c-KIT(D816V)) | GI50 (c-KIT V560G/D816V)
1 | COc1cc2ncnc(-c3ccc(NC(=O)Cc4ccc(C(F)(F)F)cc4)cc3)c2cc1OCCCN1CC(N(C)C)C1 [Example 152, N-(4-(6-(3-(3-(dimethylamino)azetidin-1-yl)propoxy)-7-methoxyquinazolin-4-yl)phenyl)-2-(4-(trifluoromethyl)phenyl)acetamide] | ≤ 200 nM | –
2 | CCN1CCCC(COc2cc3ncnc(-c4ccc(NC(=O)Cn5cc(C(C)(C)C)nn5)cc4)c3cc2OC)C1 (stereo not drawn) [Example 112, 2-(4-(tert-butyl)-1H-1,2,3-triazole-1-yl)-N-(4-(7-((1-ethylpiperidin-3-yl)methoxy)-6-methoxyquinazolin-4-yl)phenyl)acetamide] | – | > 500 nM
3 | COc1cc2c(-c3ccc(NC(=O)Cn4cc(C(C)(C)C)nn4)cc3)ncnc2cc1OCC1CCN(C(C)C)CC1 [Example 119, 2-(4-(tert-butyl)-1H-1,2,3-triazole-1-yl)-N-(4-(7-((1-isopropylpiperidin-4-yl)methoxy)-6-methoxyquinazolin-4-yl)phenyl)acetamide] | – | > 500 nM
4 | COc1cc2ncnc(-c3ccc(NC(=O)Cc4ccc(C(F)(F)F)cc4)cc3)c2cc1OCCCN1CC2(CNC2)C1 [Example 148, N-(4-(6-(3-(2,6-diazaspiro[3.3]heptane-2-yl)propoxy)-7-methoxyquinazolin-4-yl)phenyl)-2-(4-(trifluoromethyl)phenyl)acetamide] | > 500 nM | –
5 | COCCN1CCC(COc2cc3ncnc(-c4ccc(NC(=O)Cn5cc(C(C)(C)C)nn5)cc4)c3cc2OC)CC1 [Example 95, 2-(4-(tert-butyl)-1H-1,2,3-triazole-1-yl)-N-(4-(6-methoxy-7-((1-(2-methoxyethyl)piperidin-4-yl)methoxy)quinazolin-4-yl)phenyl)acetamide] | – | > 500 nM
6 | COc1cc2ncnc(-c3ccc(NC(=O)Cc4ccc(C(F)(F)F)cc4)cc3)c2cc1OC1COC1 [Example 153, N-(4-(7-methoxy-6-(oxetan-3-yloxy)quinazolin-4-yl)phenyl)-2-(4-(trifluoromethyl)phenyl)acetamide] | ≤ 200 nM | –
7 | CCN1CCCC(COc2cc3ncnc(-c4ccc(NC(=O)Cn5cc(C(C)C)nn5)cc4)c3cc2OC)C1 (stereo not drawn) [Example 111, N-(4-(7-((1-ethylpiperidin-3-yl)methoxy)-6-methoxyquinazolin-4-yl)phenyl)-2-(4-isopropyl-1H-1,2,3-triazole-1-yl)acetamide] | – | > 500 nM
8 | C=CCC(=O)Nc1ccc(-c2ncnc3cc(OCCCN4CCN(C)CC4)c(OC)cc23)cc1 [Example 87, N-(4-(6-methoxy-7-(3-(4-methylpiperazin-1-yl)propoxy)quinazolin-4-yl)phenyl)but-3-enamide] | ≤ 200 nM | –
9 | COc1cc2c(-c3ccc(NC(=O)Cn4cc(C(C)(C)C)nn4)cc3)ncnc2cc1OCCCN1CCN(C)CC1 [Example 68, 2-(4-(tert-butyl)-1H-1,2,3-triazole-1-yl)-N-(4-(6-methoxy-7-(3-(4-methylpiperazin-1-yl)propoxy)quinazolin-4-yl)phenyl)acetamide] | ≤ 200 nM | –
10 | CCN1CCC(COc2cc3ncnc(-c4ccc(NC(=O)Cn5cc(C(C)C)nn5)cc4)c3cc2OC)CC1 [Example 65, N-(4-(7-((1-ethylpiperidin-4-yl)methoxy)-6-methoxyquinazolin-4-yl)phenyl)-2-(4-isopropyl-1H-1,2,3-triazole-1-yl)acetamide] | ≤ 200 nM | –
11 | COc1cc2c(-c3ccc(NC(=O)Cn4cc(C(C)(C)C)nn4)cc3)ncnc2cc1OCC1CCN(C)CC1 [Example 106, 2-(4-(tert-butyl)-1H-1,2,3-triazole-1-yl)-N-(4-(6-methoxy-7-((1-methylpiperidin-4-yl)methoxy)quinazolin-4-yl)phenyl)acetamide] | – | > 500 nM
12 | COc1cc2c(-c3ccc(NC(=O)Cc4ccc(C(F)(F)F)cc4)cc3)ncnc2cc1OCC1CCN(C(C)=O)CC1 [Example 102, N-(4-(7-((1-acetylpiperidin-4-yl)methoxy)-6-methoxyquinazolin-4-yl)phenyl)-2-(4-(trifluoromethyl)phenyl)acetamide] | – | ≤ 200 nM
13 | COc1ccc(CC(=O)Nc2ccc(-c3ncnc4cc(OCC5CCN(C(C)=O)CC5)c(OC)cc34)cc2)cn1 [Example 103, N-(4-(7-((1-acetylpiperidin-4-yl)methoxy)-6-methoxyquinazolin-4-yl)phenyl)-2-(6-methoxypyridin-3-yl)acetamide] | – | 200 to 500 nM
14 | COc1cc2c(-c3ccc(NC(=O)Cn4cc(C(C)C)nn4)cc3)ncnc2cc1OCC1CCN(C(C)C)CC1 [Example 120, 2-(4-isopropyl-1H-1,2,3-triazole-1-yl)-N-(4-(7-((1-isopropylpiperidin-4-yl)methoxy)-6-methoxyquinazolin-4-yl)phenyl)acetamide] | – | > 500 nM
15 | CCN1CCC(COc2cc3ncnc(-c4ccc(NC(=O)C5(c6ccc(F)cc6)CC5)cc4)c3cc2OC)CC1 [Example 93, N-(4-(7-((1-ethylpiperidin-4-yl)methoxy)-6-methoxyquinazolin-4-yl)phenyl)-1-(4-fluorophenyl)cyclopropane-1-carboxamide] | – | 200 to 500 nM
16 | COc1cc2c(-c3ccc(NC(=O)C(C)(C)c4ccc(F)cc4)cc3)ncnc2cc1OCC1CCNCC1 [Example 88, 2-(4-fluorophenyl)-N-(4-(6-methoxy-7-(piperidin-4-ylmethoxy)quinazolin-4-yl)phenyl)-2-methylpropanamide] | – | 200 to 500 nM
17 | COc1cc2c(-c3ccc(NC(=O)Cn4cc(C(C)(C)C)nn4)cc3)ncnc2cc1OCC1CCN(C(C)=O)CC1 [Example 108, N-(4-(7-((1-acetylpiperidin-4-yl)methoxy)-6-methoxyquinazolin-4-yl)phenyl)-2-(4-(tert-butyl)-1H-1,2,3-triazole-1-yl)acetamide] | – | > 500 nM
18 | COCCOc1cc2ncnc(-c3ccc(NC(=O)Cc4ccc(C(F)(F)F)cc4)cc3)c2cc1OC [Example 117, N-(4-(6-methoxy-7-(2-methoxyethoxy)quinazolin-4-yl)phenyl)-2-(4-(trifluoromethyl)phenyl)acetamide] | – | ≤ 200 nM
19 | COc1cc2c(-c3ccc(NC(=O)Cn4cc(C(C)C)nn4)cc3)ncnc2cc1OCC1CCN(C)CC1 [Example 105, 2-(4-isopropyl-1H-1,2,3-triazole-1-yl)-N-(4-(6-methoxy-7-((1-methylpiperidin-4-yl)methoxy)quinazolin-4-yl)phenyl)acetamide] | – | > 500 nM
20 | COc1cc2c(-c3ccc(NC(=O)Cc4ccc(C(F)(F)F)nc4)cc3)ncnc2cc1OCC1CCN(C(C)=O)CC1 [Example 104, N-(4-(7-((1-acetylpiperidin-4-yl)methoxy)-6-methoxyquinazolin-4-yl)phenyl)-2-(6-(trifluoromethyl)pyridin-3-yl)acetamide] | – | 200 to 500 nM
21 | COc1cc2c(-c3ccc(NC(=O)Cc4ccc(C(F)(F)F)cc4)cc3)ncnc2cc1OCC1CCNCC1 [Example 17, N-(4-(6-methoxy-7-(piperidin-4-ylmethoxy)quinazolin-4-yl)phenyl)-2-(4-(trifluoromethyl)phenyl)acetamide] | – | ≤ 200 nM
22 | COCCN1CCC(COc2cc3ncnc(-c4ccc(NC(=O)C5(c6ccc(F)cc6)CC5)cc4)c3cc2OC)CC1 [Example 92, 1-(4-fluorophenyl)-N-(4-(6-methoxy-7-((1-(2-methoxyethyl)piperidin-4-yl)methoxy)quinazolin-4-yl)phenyl)cyclopropane-1-carboxamide] | – | 200 to 500 nM
23 | COc1cc2c(-c3ccc(NC(=O)Cn4cc(C(C)C)nn4)cc3)ncnc2cc1OCC1CCN(C(C)=O)CC1 [Example 107, N-(4-(7-((1-acetylpiperidin-4-yl)methoxy)-6-methoxyquinazolin-4-yl)phenyl)-2-(4-isopropyl-1H-1,2,3-triazole-1-yl)acetamide] | – | > 500 nM
24 | COCCN1CCC(COc2cc3ncnc(-c4ccc(NC(=O)CCCc5ccccc5)cc4)c3cc2OC)CC1 [Example 114, N-(4-(6-methoxy-7-((1-(2-methoxyethyl)piperidin-4-yl)methoxy)quinazolin-4-yl)phenyl)-4-phenylbutanamide] | – | 200 to 500 nM
25 | COCCN1CCC(COc2cc3ncnc(-c4ccc(NC(=O)Cn5cc(C(C)C)nn5)cc4)c3cc2OC)CC1 [Example 94, 2-(4-isopropyl-1H-1,2,3-triazole-1-yl)-N-(4-(6-methoxy-7-((1-(2-methoxyethyl)piperidin-4-yl)methoxy)quinazolin-4-yl)phenyl)acetamide] | – | > 500 nM
26 | COc1cc2c(-c3ccc(NC(=O)Cc4ccc(C(F)(F)F)cc4)cc3)ncnc2cc1OCC1CCN(C(=O)OC(C)(C)C)CC1 [Example 15, tert-butyl 4-(((6-methoxy-4-(4-(2-(4-(trifluoromethyl)phenyl)acetamido)phenyl)quinazolin-7-yl)oxy)methyl)piperidin-1-carboxylate] | – | > 500 nM
27 | COc1cc2c(-c3ccc(NC(=O)C4(c5ccc(F)cc5)CC4)cc3)ncnc2cc1OCC1CCNCC1 [Example 91, 1-(4-fluorophenyl)-N-(4-(6-methoxy-7-(piperidin-4-ylmethoxy)quinazolin-4-yl)phenyl)cyclopropane-1-carboxamide] | – | 200 to 500 nM
